Earlier results as cited in publication PMC4567415 (Nuclear medicine and biology, 2015).
“And” between values parts separate entries of the source, which are not always exact repeats. Equal values may be shown once. Read-outs that look alike come from different tables or passages of the source. Values belong to the compound of their own block, whether it stands above or below them.

Experiments:
[1] = previously described rhodamine B ester
[2] = rats, 60 min
[3] = tested on: isolated rat cardiomyocytes
[4] = previously observed
[5] = tested on: Pgp
[6] = Sprague-Dawley rats, 60 min p.i.

heart uptake (Sprague-Dawley rats, 30 min): 1.51±0.04 % ID/g
liver concentration (Sprague-Dawley rats, 30 min p.i.): 0.18±0.05 % ID/g
heart uptake [6]: 1.57±0.18 % ID/g
liver concentration [6]: 0.17±0.03 % ID/g
SMILES: Fc1ccc([P+](c2ccccc2)(c2ccccc2)c2ccccc2)cc1 [BFPET]

heart-to-blood ratio (30 min p.i.): 30.0
heart-to-liver ratio (30 min p.i.): 2.7
liver concentration (30 min p.i.): 1.27±0.10 % ID/g
heart-to-liver ratio (120 min p.i.): 5.4
liver concentration (120 min p.i.): 0.63±0.16 % ID/g
heart concentration [6]: 3.3±0.3 % ID/g
heart-to-liver ratio [6]: 3.7
heart concentration (Wistar rats, 60 min p.i.): 2.06±0.83 % ID/g
heart-to-liver ratio (Wistar rats, 60 min p.i.): 5.4
SMILES: CC(C)(C)n1ncc(OCc2ccc(COCCF)cc2)c(Cl)c1=O [BMS-747158-02]

SMILES: CCN(CC)c1ccc2c(-c3ccccc3C(=O)OCCOCC[18F])c3ccc(N(CC)CC)cc3[o+]c2c1 [[^18F]2]
LogD [1]: 1.90 ± 0.01
Biodistribution of radioactivity, Blood [2]: 0.25 ± 0.02 % ID/g
Biodistribution of radioactivity, Bone [2]: 0.77 ± 0.04 % ID/g
Biodistribution of radioactivity, Gut [2]: 1.69 ± 0.42 % ID/g
Biodistribution of radioactivity, Heart [2]: 2.5 % ID/g and 2.51 ± 0.16 % ID/g
Biodistribution of radioactivity, Kidney [2]: 9.28 ± 0.66 % ID/g
Biodistribution of radioactivity, Liver [2]: 0.49 ± 0.04 % ID/g
Biodistribution of radioactivity, Lung [2]: 2.06 ± 0.16 % ID/g
Biodistribution of radioactivity, Muscle [2]: 0.54 ± 0.07 % ID/g
Biodistribution of radioactivity, Skin [2]: 0.36 ± 0.04 % ID/g
Biodistribution of radioactivity, Spleen [2]: 3.53 ± 0.57 % ID/g
Heart/blood tissue ratio [2]: 10.0
Heart/bone tissue ratio [2]: 3.3
Heart/liver tissue ratio [2]: 5.1
Heart/lung tissue ratio [2]: 1.2
initial activity internalized into rat cardiomyocytes ([3]; 1 min incubation): 3.9±0.8%
initial activity internalized into rat cardiomyocytes ([3]; 60 min incubation): 43.1±7.7%
stability in mouse serum [4]: instability

SMILES: CC/N=c1\cc2oc3cc(NCC)c(C)cc3c(-c3ccccc3C(=O)OCC)c-2cc1C [rhodamine 6G]
substrate of Pgp [5]: substrate of Pgp
